{
  "source": "patent US12441774B2",
  "about": "“Molecular guide system peptides and uses thereof” (SRI International, priority 2017, dated 2025)",
  "key": {"EphA2 [1]": {"biological_target": "T1, EphA2 (Homo sapiens, UniProt P29317)", "T1 construct": "endogenous in cells", "T1 sequence (P29317 24-976, species assumed)": "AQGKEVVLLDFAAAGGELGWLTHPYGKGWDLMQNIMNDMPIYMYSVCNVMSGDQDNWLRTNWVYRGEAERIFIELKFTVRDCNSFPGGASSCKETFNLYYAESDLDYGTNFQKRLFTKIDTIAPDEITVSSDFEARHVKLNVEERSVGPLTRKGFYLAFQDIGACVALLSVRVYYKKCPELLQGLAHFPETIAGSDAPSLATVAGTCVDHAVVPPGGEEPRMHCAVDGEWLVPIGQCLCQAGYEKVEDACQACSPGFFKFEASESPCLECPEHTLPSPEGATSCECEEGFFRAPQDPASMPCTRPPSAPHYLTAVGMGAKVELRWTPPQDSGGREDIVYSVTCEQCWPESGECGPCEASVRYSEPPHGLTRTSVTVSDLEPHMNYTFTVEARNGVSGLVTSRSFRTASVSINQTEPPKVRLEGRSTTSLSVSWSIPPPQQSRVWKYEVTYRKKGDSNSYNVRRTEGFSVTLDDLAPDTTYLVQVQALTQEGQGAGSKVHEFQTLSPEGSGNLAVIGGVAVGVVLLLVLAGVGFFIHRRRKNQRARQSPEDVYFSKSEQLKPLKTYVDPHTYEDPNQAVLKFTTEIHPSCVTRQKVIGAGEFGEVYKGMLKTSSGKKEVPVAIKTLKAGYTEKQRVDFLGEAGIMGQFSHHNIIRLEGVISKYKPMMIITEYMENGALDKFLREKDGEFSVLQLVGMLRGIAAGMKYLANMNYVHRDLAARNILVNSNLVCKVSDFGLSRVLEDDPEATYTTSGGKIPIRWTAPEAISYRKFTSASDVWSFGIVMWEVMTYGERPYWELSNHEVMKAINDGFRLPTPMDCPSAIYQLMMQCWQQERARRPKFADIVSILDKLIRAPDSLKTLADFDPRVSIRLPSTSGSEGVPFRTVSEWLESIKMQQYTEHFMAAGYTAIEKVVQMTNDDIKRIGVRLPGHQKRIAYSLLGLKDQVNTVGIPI", "test": "MGS_H1299.2 V4 binding to purified EphA2", "conditions": "EphA2 study", "text": "(§1) The cellular receptor for MGS_H1299.2 v4 is EphA2. The following results were obtained during a study on EphA2."}, "cellular receptor": {"test_system": "cellular receptor", "test": "Receptor recycle vs new receptor synthesis in MGS internalization", "type": "cell-based"}, "EphA2 [2]": {"biological_target": "T1, EphA2", "test": "EphA2 dependence of MGS_H1299.2 V4 cell binding and internalization", "type": "cell-based", "text": "as §1"}, "[3]": {"test_system": "non-small cell lung cancer cells", "test": "Cellular location of MGS, non-small cell lung cancer cells", "type": "cell-based", "conditions": "Intracellular = uptake confirmed, exact compartment not determined", "text": "(§2) The FOX-Three Platform has already been validated for targeting of cells and subcellular components. A number of validated MGSs are in various stages of development (Tables 1 and 2) for a variety of cell targeting systems. Methods of conjugating a variety of payloads to the peptide MGSs have been established without disrupting their targeting ability. […] While cell targeting has been established and there are a number of competing antibody-based technologies for targeting the surfaces of target cells, intracellular MGSs were not previously known. […] For example, delivery of a MAb intended to bind to proteins involved in DNA replication in the cell nucleus will be therapeutically ineffective if trapped in the Golgi or other locations in the cell. The FOX-Three screening process was recently refined to include subcellular location targeting as a selection criteria. MGSs have been isolated that accumulate in lysosomes, autophagosomes, and Golgi inside cancer cells, as well as target the plasma membrane (FIG. 3)."}, "viable cells in culture": {"test_system": "viable cells in culture", "test": "Cellular uptake of MGS-conjugated MAb (flow cytometry)", "type": "cell-based", "method": "Peptide MGS with a biotin tag (“handle”) was coupled to an anti-biotin antibody. The antibody was labeled with a fluorescent tag. Panel A. MGS peptide-antibody was incubated with viable cells in culture. Uptake of the antibody into the cells was determined by flow cytometry and normalized to antibody uptake with no MGS peptide. Panel B. Uptake of the antibody was determined by fluorescent microscopy and is indicated by red “dots” in the left panel. The MGS peptide can deliver the antibody to the desired location. Using a MGS peptide that internalizes and directs cargo to the Golgi apparatus in the cell, an antibody was delivered to that subcellular compartment. Panel C. MGS peptide-Antibody was injected I.V. into a tumor bearing mouse. At set times points, near-infrared imaging was used to determine uptake of the antibody in the tumor.\nA small peptidic-MGS delivers a large monoclonal antibody into a cell in vitro and in vivo. Small peptides would not be able to carry a MAb that is almost greater than 60-times its molecular weight. Cells were treated with a MAb alone and no cellular uptake occurred. But when that MAb was conjugated to one of the identified MGS peptides, a […] increase in cellular uptake was seen.\nPeptidic-MGSs can deliver a MAb and increases cellular uptake by 20-380 (FIG. 4A). Peptidic-MGS can deliver a MAb to a discrete subcellular location as dictated by the MGS. […]"}, "cancer cell": {"test_system": "cancer cell", "test": "Delivery of cell impermeable protein-toxin, cancer cell death", "type": "cell-based", "conditions": "peptide delivering a cell impermeable protein-toxin", "text": "(§3) The peptide EHPWFNMWSWATQVQE (SEQ ID NO:38) (H2009.2) has been pushed forward first."}, "[4]": {"test_system": "non-small cell lung cancer cells", "test": "Binding to non-small cell lung cancer cells versus normal control cells", "type": "cell-based", "text": "as §3"}, "NSCLC cell lines": {"test_system": "NSCLC cell lines", "test": "Cellular uptake kinetics of valency versions of HCC15.2", "type": "cell-based", "conditions": "4 NSCLC cell lines"}, "Dendritic Cells": {"test_system": "Dendritic Cells", "test": "Cellular location of MGS, dendritic cells", "type": "cell-based", "conditions": "Intracellular = uptake confirmed, exact compartment not determined", "text": "as §2"}, "Lymphoma Cells": {"test_system": "Lymphoma Cells", "test": "Cellular location of MGS, lymphoma cells", "type": "cell-based", "text": "as §2"}, "Cardiomyocytes": {"test_system": "Cardiomyocytes", "test": "Cellular location of MGS, cardiomyocytes", "type": "cell-based", "conditions": "Intracellular = uptake confirmed, exact compartment not determined", "text": "as §2"}},
  "note": "Entries after “also recorded” stand apart in the source; their conditions may differ. Where a SMILES comes first, the peptide text is derived from it. Primed or numbered codes have the meaning given here. Where no end group is shown, it is not given here. [ ]: non-standard residue; d: D form. PEG11 = NCCOCCOCCOCCOCCOCCOCCOCCOCCOCCOCCOCCC(=O)O; PEG11′ = not defined here",
  "data": [
    {"molecule": "CC(=O)N[C@@H](Cc1ccc(O)cc1)C(=O)N[C@@H](C)C(=O)N[C@@H](C)C(=O)N[C@@H](Cc1c[nH]c2ccccc12)C(=O)N1CCC[C@H]1C(=O)N[C@@H](C)C(=O)N[C@@H](CO)C(=O)NCC(=O)N[C@@H](C)C(=O)N[C@@H](Cc1c[nH]c2ccccc12)C(=O)N[C@H](C(=O)NCCOCCOCCOCCOCCOCCOCCOCCOCCOCCOCCOCCC(=O)N[C@@H](CS)C(N)=O)[C@@H](C)O", "note": "[MGS_H1299.2 V4, CH3CO—YAAWPASGAWT—PEG11—C—NH2] (Ac-YAAWPASGAWT[PEG11]C-NH2)", "values": [
      {"measurement": "competition with EprhrinA1 for binding", "setting": "EphA2 [1]", "value": "compete for binding"},
      {"measurement": "fate of the bound cellular receptor upon internalization", "setting": "cellular receptor", "value": "primarily degraded upon internalization"},
      {"measurement": "EphA2 internalization and co-localization", "setting": "EphA2 [2]", "value": "induces EphaA2 internalization and co-localizes with the receptor in lysosome"},
      {"measurement": "peptide binding to cells", "setting": "EphA2 [2]; increasing EphA2 in cells", "value": "increases MGS_H1299.2 V4 binding"},
      {"measurement": "peptide binding to cells", "setting": "EphA2 [2]; reduction of EphA2 in cells", "value": "abrogates MGS_H1299.2 V4 binding"}
    ]},
    {"molecule": "AHTIDDEWASYHMQQWNSPP [MGS_H2009.4]", "values": [
      {"measurement": "Cellular Location", "setting": "[3]", "value": "MGS_H2009.4_Golgi/ER"}
    ]},
    {"molecule": "ATEPRKQYATPRVFWTDAPG [MGS_HCC15.1]", "values": [
      {"measurement": "Cellular Location", "setting": "[3]", "value": "MGS_HCC15.1_Intracellular"}
    ]},
    {"molecule": "CH3CO—FHAVPQSFYT—PEG11—C—NH2 (Ac-FHAVPQSFYT[PEG11′]C-NH2) [HCC15.2 v8]", "values": [
      {"measurement": "fate of the bound cellular receptor upon internalization", "setting": "cellular receptor", "value": "primarily degraded upon internalization"}
    ]},
    {"molecule": "CH3CO—LQWRRNFGVWARYRL—PEG11—C—NH2 (Ac-LQWRRNFGVWARYRL[PEG11′]C-NH2) [HCC15.1 v4]", "values": [
      {"measurement": "fate of the bound cellular receptor upon internalization", "setting": "cellular receptor", "value": "primarily degraded upon internalization"}
    ]},
    {"molecule": "CH3CO—RGDLATLRQL—PEG11—YC—NH2 (Ac-RGDLATLRQL[PEG11′]YC-NH2) [MGS_H2009.1 v4]", "values": [
      {"measurement": "fate of the bound cellular receptor upon internalization", "setting": "cellular receptor", "value": "rapidly recycled back to the cell surface"}
    ]},
    {"molecule": "EAMNSAEQSAAVVQWEKRRI [MGS_H460.1]", "values": [
      {"measurement": "Cellular Location", "setting": "[3]", "value": "MGS_H460.1_PlasmaMembrane"}
    ]},
    {"molecule": "EHPWFNMWSWATQVQE [MGS_H2009.2]", "values": [
      {"measurement": "intracellular delivery of MAb", "setting": "viable cells in culture", "value": "delivers a MAb intracellularly"},
      {"measurement": "potency to induce cell death", "setting": "cancer cell", "value": 80, "unit": "nM"},
      {"measurement": "cell binding specificity", "setting": "[4]", "value": "binds to 3 different non-small cell lung cancer cells with minimal binding to normal control cells"},
      {"measurement": "Cellular Location", "setting": "[3]", "value": "MGS_H2009.2_Lysosome"}
    ]},
    {"molecule": "FAAKRAEWWDPGQLWDAVWN [MGS_H1993.2]", "values": [
      {"measurement": "Cellular Location", "setting": "[3]", "value": "MGS_H1993.2_Intracellular"}
    ]},
    {"molecule": "FEEFYSRQSNTIPYPQQYKG [MGS_H2009.5]", "values": [
      {"measurement": "Cellular Location", "setting": "[3]", "value": "MGS_H2009.5_ER/Lysosome"}
    ]},
    {"molecule": "FHAVPQSFYTAP [MGS_HCC15.2]", "values": [
      {"measurement": "Cellular Location", "setting": "[3]", "value": "MGS_HCC15.2_Intracellular"},
      {"measurement": "change of peptide affinity with valency", "setting": "NSCLC cell lines; dimer", "value": "significant enhancement of peptide affinity with dimerization"},
      {"measurement": "change of peptide affinity with valency", "setting": "NSCLC cell lines; tetramer", "value": "modest improvement upon tetramerization"}
    ]},
    {"molecule": "GPEDTSRAPENQQKTFHRRW [MGS_XS52.1]", "values": [
      {"measurement": "Cellular Location", "setting": "Dendritic Cells", "value": "MGS_XS52.1_Intacellular"}
    ]},
    {"molecule": "KSREHVNNSACPSKRITAAL [MGS_A20.2]", "values": [
      {"measurement": "Cellular Location", "setting": "Lymphoma Cells", "value": "MGS_A20.2_Plasma Membrane"}
    ]},
    {"molecule": "LQWRRDDNVHNFGVWARYRL (Ac-LQWRRDDNVHNFGVWARYRL) [MGS_1299.3]", "values": [
      {"measurement": "Cellular Location", "setting": "[3]", "value": "MGS_1299.3_Lysosome/; also recorded: Autophagosomes"}
    ]},
    {"molecule": "MDGATWWTQLDPLLVWEGET [MGS_H1993.5]", "values": [
      {"measurement": "Cellular Location", "setting": "[3]", "value": "MGS_H1993.5_Intracellular"}
    ]},
    {"molecule": "MTVCNASQRQAHAQATAVSL [MGS_A549.1]", "values": [
      {"measurement": "Cellular Location", "setting": "[3]", "value": "MGS_A549.1_Intracellular"}
    ]},
    {"molecule": "QEALEEWFWKMMPWSGPSGQ [MGS_H1993.3]", "values": [
      {"measurement": "Cellular Location", "setting": "[3]", "value": "MGS_H1993.3_Intracellular"}
    ]},
    {"molecule": "RGDLATLRQLAQEDGVVGVR [MGS_H2009.1]", "values": [
      {"measurement": "Cellular Location", "setting": "[3]", "value": "MGS_H2009.1_Golgi"}
    ]},
    {"molecule": "SADWFQGPAEWLLEGWMGPL [MGS_H1993.6]", "values": [
      {"measurement": "Cellular Location", "setting": "[3]", "value": "MGS_H1993.6_Intracellular"}
    ]},
    {"molecule": "SAKTAVSQRVWLPSHRGGEP [MGS_A20.1]", "values": [
      {"measurement": "Cellular Location", "setting": "Lymphoma Cells", "value": "MGS_A20.1_PlasmaMembrane"}
    ]},
    {"molecule": "SVEYWGERMYYDVMESLGFS [MGS_H1993.1]", "values": [
      {"measurement": "Cellular Location", "setting": "[3]", "value": "MGS_H1993.1_Lysosome"}
    ]},
    {"molecule": "TWTDFGQWPWPFGAEGTRAF [MGS_H1993.4]", "values": [
      {"measurement": "Cellular Location", "setting": "[3]", "value": "MGS_H1993.4_Pre-mitotic cells only"}
    ]},
    {"molecule": "VSQTMRQTAVPLLWFWTGSL [MGS_H1299.1]", "values": [
      {"measurement": "Cellular Location", "setting": "[3]", "value": "MGS_H1299.1_Intracellular"}
    ]},
    {"molecule": "WLSEAGPVVTVRALRGTGSW [MGS_PCM.1]", "values": [
      {"measurement": "Cellular Location", "setting": "Lymphoma Cells", "value": "MGS_PCM.1_Plasma Membrane"},
      {"measurement": "Cellular Location", "setting": "Cardiomyocytes", "value": "MGS_PCM.1_Intracellular"}
    ]},
    {"molecule": "YAAWPASGAWTGTAPCSAGT [MGS_H1299.2]", "values": [
      {"measurement": "Cellular Location", "setting": "[3]", "value": "MGS_H1299.2_Intracellular"}
    ]},
    {"molecule": "YPGSPTQYPSSMHEYHSSSE [MGS_H2009.3]", "values": [
      {"measurement": "Cellular Location", "setting": "[3]", "value": "MGS_H2009.3_Lysosome"}
    ]}
  ]
}
